Measured values: article PMC11062922 (Nature Chemical Biology, 2023)
Several values for one entry are separate records, joined by “and”; a condition that tells them apart may be missing. Equal entries are not always repeated. Where two headings read alike, the source gives them in different places. One block for each compound: values may come before it.

Tests used:
[1] = test system: ERBB2; details: ERBB2 (2nd target, 2nd value); ref chemicalprobes.org; cited from earlier work
[2] = target: T1, CSNK1D (Homo sapiens, UniProt P48730); test: Kinobeads full dose-response competition binding: CSNK1D; details: Gene Name CSNK1D
T1 construct: endogenous in cells

[3] = target: T2, MAPKAPK2 (Homo sapiens, UniProt P49137); test: Kinobeads full dose-response competition binding: MAPKAPK2; details: Gene Name MAPKAPK2
T2 construct: endogenous in cells

[4] = target: T3, CSK (Homo sapiens, UniProt P41240); test: Kinobeads two-dose competition binding: CSK; details: read-out: Lestaurtinib Drugmatrix value, Gene Name CSK
T3 construct: endogenous in cells

[5] = target: T4, DYRK1A (Homo sapiens, UniProt Q13627); test: Kinobeads two-dose competition binding: DYRK1A; details: read-out: Lestaurtinib Drugmatrix value, Gene Name DYRK1A, target DYRK1A; each column = one Lestaurtinib control replicate (batch_R1-R3)
T4 construct: endogenous in cells

[6] = target: T5, BMPR1B (Homo sapiens, UniProt O00238); test: Kinobeads two-dose competition binding: BMPR1B; details: read-out: Lestaurtinib Drugmatrix value, Gene Name BMPR1B
T5 construct: endogenous in cells

[7] = target: T6, PIM1 (Homo sapiens, UniProt P11309); test: Kinobeads competition binding, Lestaurtinib control replicates: PIM1; details: read-out: Lestaurtinib Drugmatrix value; Gene Name PIM1; one column per experiment number and replicate (R1-R3)
T6 construct: a mixture of lysates from five cancer cell lines; endogenous in cells

[8] = target: T7, PIM3 (Homo sapiens, UniProt Q86V86); test: Kinobeads competition binding, Lestaurtinib control replicates: PIM3
T7 construct: a mixture of lysates from five cancer cell lines; endogenous in cells

[9] = target: T8, endogenous kinases and other proteins enriched by Kinobeads from mixed cancer cell lysates (Homo sapiens, UniProt O00444); test: Kinobeads pulldown, full dose-response (eight doses); format: binding; details: target PLK4;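 note: competition with Kinobeads ε after inhibitor preincubation in lysate (5 mg/ml protein) for 45 min at 4 °C, DMSO control, doses 0.3–1,000 nM, label-free LC–MS/MS quantification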
T8 construct: endogenous in cells

[10] = target: T9, endogenous kinases and other proteins enriched by Kinobeads from mixed cancer cell lysates (Homo sapiens, UniProt O14965); test: as above; format: binding; details: target AURKA
T9 construct: endogenous in cells

[11] = target: T10, endogenous kinases and other proteins enriched by Kinobeads from mixed cancer cell lysates (Homo sapiens, UniProt O60285); test: as above; format: binding; details: target NUAK1
T10 construct: endogenous in cells

[12] = target: T11, endogenous kinases and other proteins enriched by Kinobeads from mixed cancer cell lysates (Homo sapiens, UniProt P11274); test: as above; format: binding; details: target BCR
T11 construct: endogenous in cells

[13] = target: T12, endogenous kinases and other proteins enriched by Kinobeads from mixed cancer cell lysates (Homo sapiens, UniProt Q13043); test: as above; format: binding; details: target STK4
T12 construct: endogenous in cells

[14] = target: T13, endogenous kinases and other proteins enriched by Kinobeads from mixed cancer cell lysates (Homo sapiens, UniProt Q13188); test: as above; format: binding; details: target STK3
T13 construct: endogenous in cells

[15] = target: T14, endogenous kinases and other proteins enriched by Kinobeads from mixed cancer cell lysates (Homo sapiens, UniProt Q15831); test: as above; format: binding; details: target STK11
T14 construct: endogenous in cells

[16] = target: T15, endogenous kinases and other proteins enriched by Kinobeads from mixed cancer cell lysates (Homo sapiens, UniProt Q6ZSR9); test: as above; format: binding; details: target Q6ZSR9
T15 construct: endogenous in cells

[17] = target: T16, endogenous kinases and other proteins enriched by Kinobeads from mixed cancer cell lysates (Homo sapiens, UniProt Q96GD4); test: as above; format: binding; details: target AURKB
T16 construct: endogenous in cells

[18] = target: T17, endogenous kinases and other proteins enriched by Kinobeads from mixed cancer cell lysates (Homo sapiens, UniProt Q9BZL6); test: as above; format: binding; details: target PRKD2
T17 construct: endogenous in cells

[19] = target: T18, endogenous kinases and other proteins enriched by Kinobeads from mixed cancer cell lysates (Homo sapiens, UniProt Q9H2G2); test: as above; format: binding; details: target SLK
T18 construct: endogenous in cells

[20] = target: T19, endogenous kinases and other proteins enriched by Kinobeads from mixed cancer cell lysates (Homo sapiens, UniProt Q9NQS7); test: as above; format: binding; details: target INCENP
T19 construct: endogenous in cells

[21] = target: T20, endogenous kinases and other proteins enriched by Kinobeads from mixed cancer cell lysates (Homo sapiens, UniProt Q9NSY1); test: as above; format: binding; details: target BMP2K
T20 construct: endogenous in cells

[22] = target: T21, endogenous kinases and other proteins enriched by Kinobeads from mixed cancer cell lysates (Homo sapiens, UniProt Q9P289); test: as above; format: binding; details: target STK26
T21 construct: endogenous in cells

[23] = target: T22, CK2alpha1 (CSNK2A1) (Homo sapiens, UniProt P68400); test: Recombinant kinase activity assay (ProQinase, FlashPlate radiometric): CK2alpha1; format: biochemical
T22 construct: purchased ProQinase
Experimental: (§1) Kinase activity assays were performed by ProQinase. Dose-dependent activity inhibition of CDK1/cyclinB, CK2alpha1 and CK2alpha2 were measured using a FlashPlateTM-based radiometric assay at KM (ATP) of the respective kinase.

[24] = target: T23, CK2alpha2 (CSNK2A2) (Homo sapiens, UniProt P19784); test: Recombinant kinase activity assay (ProQinase, FlashPlate radiometric): CK2alpha2; format: biochemical
T23 construct: purchased ProQinase
Experimental: as §1

[25] = EC50 with Correction, doses in nM, read-out: apparent Kd
[26] = eight-dose curve fit, doses in nM

SMILES: CN(C)C/C=C/C(=O)Nc1cc2c(Nc3ccc(F)c(Cl)c3)ncnc2cc1O[C@H]1CCOC1 [Afatinib]
Potency value [1]: 0.5 nM, 14 nM

SMILES: NCc1ccc(-c2nc(-c3ccncc3)c(-c3ccc(Cl)c(O)c3)[nH]2)cc1 [SB-476429-A]
Relative Intensity 0.3nM ([2]; 0.3nM compound, DMSO = 1): 0.9053
Relative Intensity 1nM ([2]; 1nM compound, DMSO = 1): 1.1
Relative Intensity 3nM ([2]; 3nM compound, DMSO = 1): 1.076
Relative Intensity 10nM ([2]; 10nM compound, DMSO = 1): 1.106
Relative Intensity 30nM ([2]; 30nM compound, DMSO = 1): 0.9763
Relative Intensity 100nM ([2]; 100nM compound, DMSO = 1): 0.9322
Relative Intensity 300nM ([2]; 300nM compound, DMSO = 1): 0.7176
Relative Intensity 1000nM ([2]; 1000nM compound, DMSO = 1): 0.4933
Kd [2, 25]: 300 nM
EC50 [2, 26]: 300 nM
Relative Intensity 0.3nM ([3]; 0.3nM compound, DMSO = 1): 1.233
Relative Intensity 1nM ([3]; 1nM compound, DMSO = 1): 1.094
Relative Intensity 3nM ([3]; 3nM compound, DMSO = 1): 1.023
Relative Intensity 10nM ([3]; 10nM compound, DMSO = 1): 1.156
Relative Intensity 30nM ([3]; 30nM compound, DMSO = 1): 0.8314
Relative Intensity 100nM ([3]; 100nM compound, DMSO = 1): 0.6869
Relative Intensity 300nM ([3]; 300nM compound, DMSO = 1): 0.5275
Relative Intensity 1000nM ([3]; 1000nM compound, DMSO = 1): 0
Kd [3, 25]: 174 nM
EC50 [3, 26]: 174 nM

SMILES: C[C@]12O[C@H](C[C@]1(O)CO)n1c3ccccc3c3c4c(c5c6ccccc6n2c5c31)CNC4=O [Lestaurtinib]
potency estimated from few doses [4]: 526 nM
potency estimated from few doses [5]: 820 nM
potency estimated from few doses [6]: 737 nM
potency estimated from few doses [7]: 860 nM
potency estimated from few doses ([8]; read-out: Lestaurtinib Drugmatrix value, PIM3, Gene Name PIM3; one column per experiment number and replicate (R1-R3)): 611 nM
potency estimated from few doses ([8]; read-out: Lestaurtinib Drugmatrix value, PIM3; Gene Name PIM3; one column per experiment number and replicate (R1-R3)): 656 nM and 795 nM

EC50 [9]: 148 nM
Kd ([9]; read-out: apparent Kd): 77.2 nM
EC50 [10]: 1280 nM
Kd ([10]; read-out: apparent Kd): 590 nM
EC50 [11]: 1020 nM
Kd ([11]; read-out: apparent Kd): 312 nM
EC50 [12]: 1020 nM
Kd ([12]; read-out: apparent Kd): 528 nM
EC50 [13]: 628 nM
Kd ([13]; read-out: apparent Kd): 567 nM
EC50 [14]: 742 nM
Kd ([14]; read-out: apparent Kd): 683 nM
EC50 [15]: 1150 nM
Kd ([15]; read-out: apparent Kd): 1150 nM
EC50 [16]: 566 nM
Kd ([16]; read-out: apparent Kd): 493 nM
EC50 [17]: 161 nM
Kd ([17]; read-out: apparent Kd): 86.7 nM
EC50 [18]: 1010 nM
Kd ([18]; read-out: apparent Kd): 895 nM
EC50 [19]: 516 nM
Kd ([19]; read-out: apparent Kd): 516 nM
EC50 [20]: 150 nM
Kd ([20]; read-out: apparent Kd): 150 nM
EC50 [21]: 537 nM
Kd ([21]; read-out: apparent Kd): 456 nM
EC50 [22]: 363 nM
Kd ([22]; read-out: apparent Kd): 275 nM
SMILES: Cn1cc(-c2nc(N[C@@H]3CCCC[C@@H]3N)c(F)c3c2C(=O)NC3)cn1 [TAK659]

SMILES: COc1cc(Nc2ncc3c(C)nc(-c4cc5ccccc5[nH]4)n3n2)cc(OC)c1OC [GW869516X]
IC50 ([23]; Enzyme CK2alpha1, Highest Assay Concentration 1.00E-06 M, read-out: IC50): 85.1 nM
IC50 ([23]; recombinant kinase activity assay at KM (ATP), read-out: Activity IC50 CSNK2A1): 85 nM
IC50 ([24]; Enzyme CK2alpha2, Highest Assay Concentration 1.00E-06 M, read-out: IC50): 33.7 nM
IC50 ([24]; recombinant kinase activity assay at KM (ATP), read-out: Activity IC50 CSNK2A2): 34 nM
